Reference: patent US11021471B2, “Antibacterial compounds” (FORGE THERAPEUTICS, INC., priority 2017, dated 2021)
Converted amounts (≈) assume the structure as drawn.

What was measured:
[1] = system: E. coli; assay: Bacterial susceptibility testing, MIC by broth microdilution (CLSI); assay type: cell-based; details: Escherichia coli, cation adjusted Mueller-Hinton Broth, 35° C., 18-24 h
Description: (§1) Minimal inhibitory concentrations (MIC) were determined by the broth microdilution method in accordance with the Clinical and Laboratory Standards Institute (CLSI) guidelines. In brief, organism suspensions were adjusted to a 0.5 McFarland standard to yield a final inoculum between 3×10^5 and 7×10^5 colony-forming units (CFU)/mL. Drug dilutions and inocula were made in sterile, cation adjusted Mueller-Hinton Broth (Beckton Dickinson). An inoculum volume of 100 μL was added to wells containing 100 μL of broth with 2-fold serial dilutions of drug. All inoculated microdilution trays were incubated in ambient air at 35° C. for 18-24 h. Following incubation, the lowest concentration of the drug that prevented visible growth (OD600 nm<0.05) was recorded as the MIC. Performance of the assay was monitored by the use of laboratory quality-control strains and levofloxacin, a compound with a defined MIC spectrum, in accordance with CLSI guidelines.

[2] = system: S. aureus; assay: as above; assay type: cell-based; details: Staphylococcus aureus, cation adjusted Mueller-Hinton Broth, 35° C., 18-24 h
Description: as §1

Compound	MIC [1]	MIC [2]
CS(=O)(=O)C(Cc1ccc(C#Cc2ccc(CN3CCOCC3)cc2)cc1)c1occc(=O)c1O (stereo not drawn) [Compound 1, 3-hydroxy-2-(1-(methylsulfonyl)-2-(4-((4-(morpholinomethyl)phenyl)ethynyl)phenyl)ethyl)-4H-pyran-4-one]	> 32 µg/mL	–
O=C(Nc1ccc(C#CC#Cc2ccccc2)cc1)c1occc(=O)c1O [Compound 2, 3-hydroxy-4-oxo-N-(4-(phenylbuta-1,3-diyn-1-yl)phenyl)-4H-pyran-2-carboxamide]	> 32 µg/mL	–
CS(=O)(=O)NCC(Cc1ccc(-c2ccccc2)cc1)c1occc(=O)c1O (stereo not drawn) [Compound 3, N-(3-([1,1′-biphenyl]-4-yl)-2-(3-hydroxy-4-oxo-4H-pyran-2-yl)propyl)methanesulfonamide]	> 32 µg/mL	> 32 µg/mL
CS(=O)(=O)CC(Cc1ccc(-c2ccccc2)cc1)c1occc(=O)c1O (stereo not drawn) [Compound 4, 2-(1-([1,1′-biphenyl]-4-yl)-3-(methylsulfonyl)propan-2-yl)-3-hydroxy-4H-pyran-4-one]	> 32 µg/mL	> 32 µg/mL
O=c1ccoc(C(CO)Cc2ccc(-c3ccccc3)cc2)c1O (stereo not drawn) [Compound 5, 2-(1-([1,1′-biphenyl]-4-yl)-3-hydroxypropan-2-yl)-3-hydroxy-4H-pyran-4-one]	> 32 µg/mL	> 32 µg/mL
NCC(Cc1ccc(-c2ccccc2)cc1)c1occc(=O)c1O (stereo not drawn) [Compound 6, 2-(1-([1,1′-biphenyl]-4-yl)-3-aminopropan-2-yl)-3-hydroxy-4H-pyran-4-one]	8 µg/mL (≈ 24.9 µM)	8 µg/mL (≈ 24.9 µM)
O=c1ccoc(CN(CCO)c2ccc(-c3ccccc3)cc2)c1O [Compound 7, 2-(([1,1′-biphenyl]-4-yl(2-hydroxyethyl)amino)methyl)-3-hydroxy-4H-pyran-4-one]	> 32 µg/mL	> 32 µg/mL
